Read-outs that look alike come from different tables or passages of the source. Starred links: 1 amine or outer side, 2 acyl side, 3 side chain; linkers in the order of their positions; H or OH if unused. Non-standard residues stand in square brackets, D forms with d. Residues, ends and D or L forms follow the SMILES beside them. *: point of attachment. Phe(4-CH2SO3H) = N[C@@H](Cc1ccc(CS(=O)(=O)O)cc1)C(=O)O; sY = N[C@@H](Cc1ccc(OS(=O)(=O)O)cc1)C(=O)O; C18 diacid = O=C(O)CCCCCCCCCCCCCCCCC(=O)*; d(βAsp) = O=C(O)[C@@H](CC(=O)[*:2])N[*:1]; γGlu = O=C(O)[C@H](CCC(=O)[*:2])N[*:1]; 2Nal = N[C@@H](Cc1ccc2ccccc2c1)C(=O)O; NMeF = CN[C@@H](Cc1ccccc1)C(=O)O; dNMeD = CN[C@H](CC(=O)O)C(=O)O; Nle = CCCC[C@H](N)C(=O)O; AEEA = NCCOCCOCC(=O)O
Columns and labels:
[1] = molecular target: T1, human cholecystokinin-2 receptor (CCK-2R) (Homo sapiens, UniProt P32239); assay: In vitro potency on CCK-2R, whole cell functional assay (IP1 accumulation, IP-One HTRF); format: cell-based
T1 construct: host or cells: 1321-N1 cells (plasma membranes prepared by Evotec AG Hamburg)
T1 sequence (P32239 1-447): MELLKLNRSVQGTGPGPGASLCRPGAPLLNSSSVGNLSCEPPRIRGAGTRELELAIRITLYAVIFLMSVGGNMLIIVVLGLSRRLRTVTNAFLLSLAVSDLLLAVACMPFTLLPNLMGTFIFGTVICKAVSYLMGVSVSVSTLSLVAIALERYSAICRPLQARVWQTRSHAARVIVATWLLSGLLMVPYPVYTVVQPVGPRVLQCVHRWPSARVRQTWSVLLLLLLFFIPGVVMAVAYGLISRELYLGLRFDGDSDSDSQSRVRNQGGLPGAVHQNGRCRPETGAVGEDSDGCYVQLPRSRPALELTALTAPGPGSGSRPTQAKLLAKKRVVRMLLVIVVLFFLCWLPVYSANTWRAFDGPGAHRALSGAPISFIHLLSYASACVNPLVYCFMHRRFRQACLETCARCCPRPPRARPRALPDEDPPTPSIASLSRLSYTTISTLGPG

[2] = molecular target: T2, human cholecystokinin-1 receptor (CCK-1R) (Homo sapiens, UniProt P32238); assay: In vitro receptor binding to CCK-1R, SPA displacement of [125I]-CCK-8s from plasma membranes
T2 construct: host or cells: 1321-N1 cells
T2 sequence (P32238 1-428): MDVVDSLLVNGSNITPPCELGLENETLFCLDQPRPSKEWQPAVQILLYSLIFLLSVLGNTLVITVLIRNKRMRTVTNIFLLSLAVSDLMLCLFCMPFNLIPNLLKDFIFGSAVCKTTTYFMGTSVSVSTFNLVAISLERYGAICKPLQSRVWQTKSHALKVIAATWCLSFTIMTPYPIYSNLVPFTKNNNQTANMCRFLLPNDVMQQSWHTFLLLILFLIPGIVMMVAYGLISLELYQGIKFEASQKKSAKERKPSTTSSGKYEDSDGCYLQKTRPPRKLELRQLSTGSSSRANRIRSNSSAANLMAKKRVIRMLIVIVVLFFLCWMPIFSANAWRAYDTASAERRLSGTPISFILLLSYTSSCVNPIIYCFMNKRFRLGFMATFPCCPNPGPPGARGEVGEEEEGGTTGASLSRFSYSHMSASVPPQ
Protocol: (§1) The in vitro binding affinity is a measure of the strength of attraction between a receptor and its ligand.
(§2) Displacement of radio ligand was measured as reduction in light emission from SPA beads.
(§3) The cells used in these assays were 1321-N1 cells stably expressing the CCK-1R or the CCK-2R (Perkin Elmer product numbers ES-530-A and ES-531-A, respectively see www.perkinelmer.com/Catalog/Product/ID/ES-530-A or -ES-531-A, respectively).
(§4) The cells were cultured in an incubator (95% RH (relative humidity), 5% (of standard atmospheric pressure) CO2, 37° C.) in cell culture medium (DMEM (Lonza catalogue BE-12-604F/U1), with 10% (v/v) Foetal Calf Serum (FCS, Gibco catalogue 16140-071), 1% (w/w) Sodium pyruvate (Gibco catalogue 11360-039), 500 μg/ml Geneticin® (G418) (Gibco catalogue 10131-027), 25 μg/ml Zeocin™ (Invitrogen catalogue R250-05), 1% (w/w) Pen/Strep (Gibco catalogue 15140-122)).
(§5) Plasma membranes were prepared by Evotec AG Hamburg by use of the ParrBomb (#4635, Parr Instrument Company). Cells were lysed with a lysis buffer (50 mM Tris, 2.5 mM EDTA, pH7) with added protease inhibitors (Complete Proteaseinhibitors EDTA-free (#05056489001, Roche), 1 tablet per 50 mL lysis buffer). The membrane fraction was separated by centrifugation. First, the cell lysate was centrifuged at 1000×g for 10 minutes at 4° C. The pellet was discarded and the supernatant was then centrifuged at 100.000×g for 30 minutes at 4° C. The supernatant was discarded and the pellet was re-suspended in 1 ml/5×10^8 cells ice cold membrane buffer (50 mM Tris, 320 mM Sucrose and Complete Proteaseinhibitors EDTA-free (#05056489001, Roche); pH7.4) and homogenised with dounce homogeniser. The protein concentration was determined using the Pierce™ BCA Protein Assay Kit according to kit manual, and the membrane preparation was adjust to the desired protein concentration with membrane buffer and aliquoted into pre-cooled tubes, snap-frozen in liquid nitrogen, and stored at −80° C.
(§6) CCK receptor binding assays were performed in 96-well Optiplates (Cat #6005290, PerkinElmer, Waltham, Mass., USA) in a total volume of 200 μl per well. CCK derivatives in 80% DMSO stock solutions of 800 μM were serially diluted […] in assay buffer (50 mM Tris/HCl, 4.5 mM MgCl2, […], 0.02% Tween 20, 0.25% ovalbumin, 0.1% pluronic F-68, pH 7.4) to final assay concentrations ranging from 10^−5 M (ten μM) to 10^−12 M (one pM).
(§7) Fifty μl of reference or test compounds were added to the Optiplates (using technical duplicates, i.e. two wells of each sample, one data point being the average of two wells), followed by addition of 150 μl of the mixture of SPA bead, radio ligand, and plasma membrane. The plates were sealed and incubated in the dark at +22° C. for 2 hours on a IKA MTS plate shaker (IKA-Werke D-79219 Staufen) set at 300 rpm and thereafter centrifuged at 1500 rpm for 10 minutes in a Heraeus Multifuge 3s centrifuge. SPA bead light emission was measured in a TopCount NXT (PerkinElmer) for 2 min/well after a delay of 60 min.
(§8) As a measure of compound affinity, calculations were performed in order to determine the half maximal inhibitory concentration (the IC50 value).
(§9) The data from the TopCounter were given as counts per minute (CPM). The CPM was plotted as a function of the concentration of compound. Dose-response curves were obtained, and IC50 values were calculated, by a nonlinear three-parameter logistic equation (log(agonist) vs response) with hillslope=−1, and shared top and bottom using the software programme GraphPad Prism v 6.0 (Graph Pad software, La Jolla, Calif., USA). The highest dose tested was 10^−5 M (1×10^7 pM).
(§10) The preference of a specific compound for the CCK-1 receptor, or the CCK-1R selectivity, may be defined as IC50 (CCK-2R)/IC50 (CCK-1R).
(§11) A minimum of three biological replicates was measured for each test compound on separate assay plates.

[3] = molecular target: T1, human cholecystokinin-2 receptor (CCK-2R); assay: In vitro receptor binding to CCK-2R, SPA displacement of [125I]-CCK-8s from plasma membranes
Protocol: as §1, §2, §3, §4, §5, §6, §7, §8, §9, §10, §11

[4] = 1321-N1 cells stably expressing CCK-2R, IP1 accumulation, highest dose tested 1×10^6 pM, read-out: EC50 (CCK-2R)
[5] = displacement of [125I]-CCK-8s, plasma membranes of 1321-N1 cells expressing CCK-1R, read-out: IC50 (CCK-1R)
[6] = displacement of [125I]-CCK-8s, plasma membranes of 1321-N1 cells expressing CCK-2R, highest dose tested 1×10^7 pM, read-out: IC50 (CCK-2R)

Compound	EC50 [1, 4]	IC50 [2, 5]	IC50 [3, 6]	EC50 [1]	IC50 [2]	IC50 [3]
CCCC[C@H](NC(=O)[C@H](Cc1c[nH]c2ccccc12)NC(=O)CNC(=O)[C@H](CC(C)C)NC(=O)[C@H](Cc1ccc(OS(=O)(=O)O)cc1)NC(=O)[C@@H](N)CCC(=O)O)C(=O)N(C)[C@H](CC(=O)O)C(=O)N[C@@H](Cc1ccccc1)C(N)=O [Example 90, Glu-sTyr-Leu-Gly-Trp-Nle-DMeAsp-Phe-amide] (H-E[sY]LGW[Nle][dNMeD]F-NH2)	> 1000 nM	0.029 nM	> 10000 nM	–	–	–
CCCC[C@H](NC(=O)[C@H](Cc1c[nH]c2ccccc12)NC(=O)CNC(=O)[C@H](CC(C)C)NC(=O)[C@H](Cc1ccc(OS(=O)(=O)O)cc1)NC(=O)[C@H](CCC(=O)O)NC(=O)COCCOCCNC(=O)COCCOCCNC(=O)CC[C@H](NC(=O)CCCCCCCCCCCCCCCCC(=O)O)C(=O)O)C(=O)N(C)[C@H](CC(=O)O)C(=O)N[C@@H](Cc1ccccc1)C(N)=O [Example 52, 2-[2-[2-[[2-[2-[2-[[(4S)-4-Carboxy-4-(17-carboxyheptadecanoylamino)butanoyl]amino]ethoxy]ethoxy]acetyl]amino]ethoxy]ethoxy]acetyl-Glu-sTyr-Leu-Gly-Trp-Nle-DMeAsp-Phe-amide] ({C18 diacid-γGlu-AEEA-AEEA}-E[sY]LGW[Nle][dNMeD]F-NH2)	–	0.049 nM	480 nM	–	–	–
CCCC[C@H](NC(=O)[C@H](Cc1c[nH]c2ccccc12)NC(=O)CNC(=O)[C@H](CC(C)C)NC(=O)[C@H](Cc1ccc(OS(=O)(=O)O)cc1)NC(=O)[C@H](CC(=O)O)NC(=O)COCCOCCNC(=O)COCCOCCNC(=O)CC[C@H](NC(=O)CCCCCCCCCCCCCCCCC(=O)O)C(=O)O)C(=O)N(C)[C@H](CC(=O)O)C(=O)N[C@@H](Cc1ccc2ccccc2c1)C(N)=O [Example 50, 2-[2-[2-[[2-[2-[2-[[(4S)-4-Carboxy-4-(17-carboxyheptadecanoylamino)butanoyl]amino]ethoxy]ethoxy]acetyl]amino]ethoxy]ethoxy]acetyl-Asp-sTyr-Leu-Gly-Trp-Nle-DMeAsp-2Nal-amide] ({C18 diacid-γGlu-AEEA-AEEA}-D[sY]LGW[Nle][dNMeD][2Nal]-NH2)	–	0.14 nM	–	–	–	–
CCCC[C@H](NC(=O)[C@H](Cc1ccc(CS(=O)(=O)O)cc1)NC(=O)C[C@@H](NC(=O)COCCOCCNC(=O)COCCOCCNC(=O)CC[C@H](NC(=O)CCCCCCCCCCCCCCCCC(=O)O)C(=O)O)C(=O)O)C(=O)NCC(=O)N[C@@H](Cc1c[nH]c2ccccc12)C(=O)N[C@@H](CCCC)C(=O)N(C)[C@H](CC(=O)O)C(=O)N(C)[C@@H](Cc1ccccc1)C(N)=O [Example 27, 2-[2-[2-[[2-[2-[2-[[(4S)-4-Carboxy-4-(17-carboxyheptadecanoylamino)butanoyl]amino]ethoxy]ethoxy]acetyl]amino]ethoxy]ethoxy]acetyl-DbAsp-Phe(4-sulfomethyl)-Nle-Gly-Trp-Nle-DMeAsp-MePhe-amide] ({C18 diacid-γGlu-AEEA-AEEA-d(βAsp)}-[Phe(4-CH2SO3H)][Nle]GW[Nle][dNMeD][NMeF]-NH2)	> 1000 nM	0.13 nM	> 10000 nM	–	–	–
CC(C)C[C@H](NC(=O)[C@H](Cc1ccc(OS(=O)(=O)O)cc1)NC(=O)[C@@H](N)CC(=O)O)C(=O)NCC(=O)N[C@@H](Cc1c[nH]c2ccccc12)C(=O)N[C@H](C(=O)N(C)[C@H](CC(=O)O)C(=O)N(C)[C@@H](Cc1ccccc1)C(N)=O)C(C)C [Example 65, Asp-sTyr-Leu-Gly-Trp-Val-DMeAsp-MePhe-amide] (H-D[sY]LGWV[dNMeD][NMeF]-NH2)	–	–	–	> 1000 nM	0.62 nM	> 10000 nM
CC[C@H](C)[C@H](NC(=O)[C@H](Cc1c[nH]c2ccccc12)NC(=O)CNC(=O)[C@H](CC(C)C)NC(=O)[C@H](Cc1ccc(OS(=O)(=O)O)cc1)NC(=O)[C@H](CC(=O)O)NC(=O)COCCOCCNC(=O)COCCOCCNC(=O)CC[C@H](NC(=O)CCCCCCCCCCCCCCCCC(=O)O)C(=O)O)C(=O)N(C)[C@H](CC(=O)O)C(=O)N(C)[C@@H](Cc1ccccc1)C(N)=O [Example 10, 2-[2-[2-[[2-[2-[2-[[(4S)-4-Carboxy-4-(17-carboxyheptadecanoylamino)butanoyl]amino]ethoxy]ethoxy]acetyl]amino]ethoxy]ethoxy]acetyl-Asp-sTyr-Leu-Gly-Trp-Ile-DMeAsp-MePhe-amide] ({C18 diacid-γGlu-AEEA-AEEA}-D[sY]LGWI[dNMeD][NMeF]-NH2)	–	–	–	–	0.1 nM	2300 nM
CC(C)C[C@H](NC(=O)[C@H](Cc1ccc(OS(=O)(=O)O)cc1)NC(=O)[C@@H](N)CC(=O)O)C(=O)NCC(=O)N[C@@H](Cc1c[nH]c2ccccc12)C(=O)N[C@@H](CCC(N)=O)C(=O)N(C)[C@H](CC(=O)O)C(=O)N(C)[C@@H](Cc1ccccc1)C(N)=O [Example 62, Asp-sTyr-Leu-Gly-Trp-Gln-DMeAsp-MePhe-amide] (H-D[sY]LGWQ[dNMeD][NMeF]-NH2)	–	–	–	> 1000 nM	0.075 nM	> 10000 nM
CCCC[C@H](NC(=O)[C@H](Cc1c[nH]c2ccccc12)NC(=O)CNC(=O)[C@H](CC(C)C)NC(=O)[C@H](Cc1ccc(OS(=O)(=O)O)cc1)NC(=O)[C@H](CC(=O)O)NC(=O)COCCOCCNC(=O)COCCOCCNC(=O)CC[C@H](NC(=O)CC[C@H](NC(=O)CCCCCCCCCCCCCCCCC(=O)O)C(=O)O)C(=O)O)C(=O)N(C)[C@H](CC(=O)O)C(=O)N(C)[C@@H](Cc1ccccc1)C(N)=O [Example 28, 2-[2-[2-[[2-[2-[2-[[(4S)-4-Carboxy-4-[[(4S)-4-carboxy-4-(17-carboxyheptadecanoylamino)butanoyl]amino]butanoyl]amino]ethoxy]ethoxy]acetyl]amino]ethoxy]ethoxy]acetyl-Asp-sTyr-Leu-Gly-Trp-Nle-DMeAsp-MePhe-amide]	–	0.1 nM	–	–	–	–

From US20170008928A1, “NOVEL PEPTIDES AND PEPTIDE DERIVATIVES AND USES THEREOF” (Novo Nordisk A/S, priority 2015, published 2017)
